Data from PubChem BioAssay AID248 (DTP/NCI, 2004).
Values joined by “and” are separate entries in the source; they are usually repeats but may differ in a detail not shown here. Equal values may be shown once. Toxic doses and inconclusive results are not listed. Cut-off read from the data, not from the text of the source: active = T/C of 150% or more; inactive = T/C below 125%.

Tested on: L1210 leukemia ip in BDF1 mice, survival T/C
Test: NCI In Vivo Anticancer Drug Screen. Data for tumor model L1210 Leukemia (intraperitoneal) in B6D2F1 (BDF1) mice
Details: endpoint: mean survival time, higher = longer survival
Procedure, shortened: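 In this screen, tumor-bearing mice given compound are compared to those given vehicle, and their survival values are reported as a treated-to-control quotient.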

[1] = dose: 100.0 mg/kg/injection, schedule: Q01DX009 (ip), vehicle: saline with Tween-80
[2] = dose: 100.0 mg/kg/injection, schedule: Q04DX003 (ip), vehicle: saline
[3] = dose: 200.0 mg/kg/injection, schedule: Q01DX009 (ip), vehicle: saline with Tween-80
[4] = dose: 200.0 mg/kg/injection, schedule: Q04DX003 (ip), vehicle: saline
[5] = dose: 400.0 mg/kg/injection, schedule: Q01DX009 (ip), vehicle: saline with Tween-80
[6] = dose: 100.0 mg/kg/injection, schedule: Q01DX001 (ip), vehicle: Klucel (hydroxypropylcellulose) (HPC)
[7] = dose: 100.0 mg/kg/injection, schedule: Q01DX001 (ip), vehicle: saline
[8] = dose: 200.0 mg/kg/injection, schedule: Q01DX001 (ip), vehicle: saline
[9] = dose: 400.0 mg/kg/injection, schedule: Q01DX001 (ip), vehicle: saline
[10] = dose: 100.0 mg/kg/injection, schedule: Q04DX003 (ip), vehicle: saline with Tween-80
[11] = dose: 200.0 mg/kg/injection, schedule: Q04DX003 (ip), vehicle: saline with Tween-80
[12] = dose: 400.0 mg/kg/injection, schedule: Q04DX003 (ip), vehicle: saline with Tween-80
[13] = dose: 100.0 mg/kg/injection, schedule: Q01DX009 (ip), vehicle: saline
[14] = dose: 50.0 mg/kg/injection, schedule: Q01DX009 (ip), vehicle: saline
[15] = dose: 100.0 mg/kg/injection, schedule: Q04DX002 (ip), vehicle: saline with Tween-80

Measured: T/C

S=C(Nc1ccccc1)NC1CCCCCC1
inactive: dose: 50.0 mg/kg/injection, schedule: Q01DX009 (ip), vehicle: saline with Tween-80 98 % of control and 92 % of control | [1] 94 % of control | [2] 97 % of control | [3] 90 % of control | [4] 94 % of control

COC(=O)C1OC1(C)c1ccc(C)cc1 (centres undefined)
inactive: [1] 92 % of control | [5] 106 % of control

CCOC(=O)C(O)(CC)c1ccncc1Br (centres undefined)
inactive: dose: 75.0 mg/kg/injection, schedule: Q04DX003 (ip), vehicle: Klucel (hydroxypropylcellulose) (HPC) 95 % of control | [6] 102 % of control | dose: 150.0 mg/kg/injection, schedule: Q04DX003 (ip), vehicle: Klucel (hydroxypropylcellulose) (HPC) 91 % of control | dose: 200.0 mg/kg/injection, schedule: Q01DX001 (ip), vehicle: Klucel (hydroxypropylcellulose) (HPC) 102 % of control | dose: 300.0 mg/kg/injection, schedule: Q04DX003 (ip), vehicle: Klucel (hydroxypropylcellulose) (HPC) 101 % of control | dose: 400.0 mg/kg/injection, schedule: Q01DX001 (ip), vehicle: Klucel (hydroxypropylcellulose) (HPC) 112 % of control

Cc1cc(C)c(S(=O)(=O)c2c(C)cc(C)cc2C)c(C)c1
inactive: dose: 25.0 mg/kg/injection, schedule: Q04DX003 (ip), vehicle: Klucel (hydroxypropylcellulose) (HPC) 100 % of control | dose: 50.0 mg/kg/injection, schedule: Q04DX003 (ip), vehicle: Klucel (hydroxypropylcellulose) (HPC) 93 % of control | dose: 100.0 mg/kg/injection, schedule: Q04DX003 (ip), vehicle: Klucel (hydroxypropylcellulose) (HPC) 88 % of control

CN(C)CCCN
inactive: [7] 97 % of control | [8] 108 % of control | [9] 95 % of control

CCCCN(CCCC)c1ccc(/C=C/c2ccnc3ccccc23)cc1
inactive: dose: 100.0 mg/kg/injection, schedule: Q01DX009 (ip), vehicle: carboxymethylcellulose (CMC) 101 % of control and 103 % of control | dose: 100.0 mg/kg/injection, schedule: Q04DX002 (ip), vehicle: carboxymethylcellulose (CMC) 102 % of control | dose: 100.0 mg/kg/injection, schedule: Q04DX003 (ip), vehicle: carboxymethylcellulose (CMC) 97 % of control | dose: 200.0 mg/kg/injection, schedule: Q01DX001 (ip), vehicle: carboxymethylcellulose (CMC) 92 % of control | dose: 200.0 mg/kg/injection, schedule: Q01DX009 (ip), vehicle: carboxymethylcellulose (CMC) 101 % of control and 104 % of control | dose: 200.0 mg/kg/injection, schedule: Q04DX002 (ip), vehicle: carboxymethylcellulose (CMC) 108 % of control | dose: 200.0 mg/kg/injection, schedule: Q04DX003 (ip), vehicle: carboxymethylcellulose (CMC) 100 % of control | dose: 400.0 mg/kg/injection, schedule: Q01DX009 (ip), vehicle: carboxymethylcellulose (CMC) 101 % of control and 103 % of control | dose: 400.0 mg/kg/injection, schedule: Q04DX002 (ip), vehicle: carboxymethylcellulose (CMC) 102 % of control | dose: 400.0 mg/kg/injection, schedule: Q04DX003 (ip), vehicle: carboxymethylcellulose (CMC) 97 % of control | dose: 800.0 mg/kg/injection, schedule: Q01DX001 (ip), vehicle: carboxymethylcellulose (CMC) 92 % of control | dose: 1600.0 mg/kg/injection, schedule: Q01DX001 (ip), vehicle: carboxymethylcellulose (CMC) 88 % of control

O=C1c2ccccc2C(=O)N1CCCn1c2ccccc2c2cnccc21
inactive: [1] 101 % of control | [10] 103 % of control | [3] 104 % of control | [11] 95 % of control | [5] 104 % of control | [12] 92 % of control

S=P(c1ccccc1)(c1ccccc1)c1cccc2ccccc12
inactive: [7] 100 % of control | [8] 94 % of control | [9] 94 % of control

CC1(C)N=C(N)N=C(N)N1c1cccc(OCCOc2cccc(N)c2)c1
inactive: dose: 5.0 mg/kg/injection, schedule: Q01DX001 (ip), vehicle: saline 91 % of control | dose: 10.0 mg/kg/injection, schedule: Q01DX001 (ip), vehicle: saline 92 % of control | dose: 20.0 mg/kg/injection, schedule: Q01DX001 (ip), vehicle: saline 94 % of control | dose: 40.0 mg/kg/injection, schedule: Q01DX001 (ip), vehicle: saline 89 % of control | [6] 106 % of control

CCCCCCCCNC(=O)C1OC(n2cnc3c(N)ncnc32)C2OC(C)(C)OC12 (centres undefined)
inactive: dose: 100.0 mg/kg/injection, schedule: Q01DX005 (ip), vehicle: saline with Tween-80 94 % of control | dose: 200.0 mg/kg/injection, schedule: Q01DX005 (ip), vehicle: saline with Tween-80 102 % of control

CC1(c2cccs2)C(=O)NC(=O)N1C(=O)CCl (centres undefined)
inactive: [1] 109 % of control | [10] 103 % of control | [3] 106 % of control | [11] 99 % of control

CCCC(=O)NO
inactive: [7] 97 % of control | [13] 102 % of control | [2] 109 % of control and 105 % of control | [8] 114 % of control | dose: 200.0 mg/kg/injection, schedule: Q01DX009 (ip), vehicle: saline 104 % of control | [4] 111 % of control and 96 % of control | [9] 108 % of control | dose: 400.0 mg/kg/injection, schedule: Q01DX009 (ip), vehicle: saline 114 % of control | dose: 400.0 mg/kg/injection, schedule: Q04DX003 (ip), vehicle: saline 112 % of control and 100 % of control

CC(=O)O/C=C1\CC2C3CC=C4CC(OC(C)=O)CCC4(C)C3CCC2(C)C1=O (centres undefined)
inactive: dose: 200.0 mg/kg/injection, schedule: Q01DX001 (ip), vehicle: saline with Tween-80 90 % of control | dose: 400.0 mg/kg/injection, schedule: Q01DX001 (ip), vehicle: saline with Tween-80 90 % of control

COc1ccccc1N1C(=O)CC(Sc2ccccc2N)C1=O (centres undefined)
inactive: dose: 100.0 mg/kg/injection, schedule: Q01DX009 (ip), vehicle: saline sonified 95 % of control | dose: 100.0 mg/kg/injection, schedule: Q04DX003 (ip), vehicle: saline sonified 87 % of control | dose: 200.0 mg/kg/injection, schedule: Q01DX009 (ip), vehicle: saline sonified 88 % of control | dose: 200.0 mg/kg/injection, schedule: Q04DX003 (ip), vehicle: saline sonified 94 % of control | dose: 400.0 mg/kg/injection, schedule: Q01DX009 (ip), vehicle: saline sonified 93 % of control | dose: 400.0 mg/kg/injection, schedule: Q04DX003 (ip), vehicle: saline sonified 96 % of control

COC(C(OC)N1CCOCC1)N1CCOCC1 (centres undefined)
inactive: [14] 102 % of control | [1] 95 % of control | [13] 110 % of control | [10] 93 % of control | dose: 132.0 mg/kg/injection, schedule: Q01DX009 (ip), vehicle: saline with Tween-80 90 % of control | [3] 101 % of control and 97 % of control | [11] 98 % of control | dose: 300.0 mg/kg/injection, schedule: Q01DX009 (ip), vehicle: saline with Tween-80 99 % of control | [5] 89 % of control | [12] 94 % of control

O=C(O)c1cccc(CCl)c1
inactive: [15] 95 % of control

CN(C)C=Nc1c2c(C#N)cn(C3OC(CO)C(O)C3O)c2nc[n+]1[O-] (centres undefined)
inactive: dose: 12.5 mg/kg/injection, schedule: Q01DX005 (ip), vehicle: saline 97 % of control | dose: 12.5 mg/kg/injection, schedule: Q01DX009 (ip), vehicle: saline 104 % of control | dose: 25.0 mg/kg/injection, schedule: Q01DX005 (ip), vehicle: saline 102 % of control | dose: 25.0 mg/kg/injection, schedule: Q01DX009 (ip), vehicle: saline 104 % of control | dose: 50.0 mg/kg/injection, schedule: Q01DX005 (ip), vehicle: saline 105 % of control | [14] 109 % of control

C=C1C(=O)OC2C=C(C(O)CC(C)O)C(C)CCC12 (centres undefined)
inactive: dose: 50.0 mg/kg/injection, schedule: Q01DX001 (ip), vehicle: water 89 % of control | dose: 100.0 mg/kg/injection, schedule: Q01DX001 (ip), vehicle: water 95 % of control | dose: 200.0 mg/kg/injection, schedule: Q01DX001 (ip), vehicle: water 94 % of control

CCOC(=O)C(OC(=O)c1ccccc1)C(OC(=O)c1ccccc1)C(=O)OCC (centres undefined)
inactive: [7] 102 % of control | [8] 100 % of control | [9] 93 % of control

Nc1ccc(C(=O)NC(CCC(=O)O)C(=O)O)cc1 (centres undefined)
inactive: [15] 92 % of control | dose: 200.0 mg/kg/injection, schedule: Q04DX002 (ip), vehicle: saline with Tween-80 95 % of control | dose: 400.0 mg/kg/injection, schedule: Q04DX002 (ip), vehicle: saline with Tween-80 92 % of control
